# Values quoted from earlier work in patent publication US20070232656A1, “Pharmaceutical Composition And Method For Treating Neurodegenerative Disorders” (Myriad Genetics, Incorporated, priority 2004, published 2007).
# Read-outs that look alike come from different tables or passages of the source.
# Key:
# Aβ42 [1] = details: transgenic mouse model
# Aβ42 [2] = details: CHO cells
# [3] = 50 mg and 100 mg doses, human subjects
# [4] = for efficacy for treating AD: clinical trials in AD patients (rofecoxib at 25 mg daily)
# [5] = patients having mild cognitive impairment
# [6] = in vivo Alzheimer's disease excitotoxic model system
smiles,measurement,setting,value
C[C@@H](C(=O)O)c1ccc(-c2ccccc2)c(F)c1 [(R)-2-(2-fluoro-4-biphenylyl)propionic acid],lowering of Aβ42,Aβ42 [1],lower Aβ42
same,lowering of Aβ42,Aβ42 [2],lower Aβ42
same,analgesic effect,[3],produced an analgesic effect
same,inhibition of COX activity,COX,negligibly inhibits COX activity
COc1ccc2cc([C@H](C)C(=O)O)ccc2c1 [Naproxen],efficacy for treating AD,[4],failed to show efficacy
CS(=O)(=O)c1ccc(C2=C(c3ccccc3)C(=O)OC2)cc1 [rofecoxib],efficacy for treating AD,[4],failed to show efficacy
same,prevention of the development of Alzheimer's disease,[5],failed to prevent the development of Alzheimer's disease
same,patients who developed AD,[5]; 4.5% for placebo,6.4%
same,neuroprotection,[6],provides neuroprotection
CC12CC3CC(C)(C1)CC(N)(C3)C2 [memantine],efficacy in treating mild-to-moderate AD,[4]; mild-to-moderate AD,showed efficacy
